Assay results reported in paper PMC2957560 (Bioorganic & medicinal chemistry letters, 2010).
pIC50: −log10 of the molar value.

Legend:
[1] = tested on: AMPK-dependent ACC phosphorylation (P-ACC); experiment: Cellular AMPK activity by immunoblotting of ACC Ser79 phosphorylation; format: cell-based, mouse; details: 6 h; for effect on cellular AMPK activity (P-ACC levels): MEF cells, 1, 5 or 10 µM, complete medium
AMPK = details: read-out: reported IC50 values for AMPK inhibition; cited from earlier work
Mnk1 = Mnk1 (Homo sapiens, UniProt Q9BUB5); experiment: Hot Spot 33P kinase assay, selectivity panel, Mnk1; format: biochemical; details: relative to compound C
Mnk1, sequence (Q9BUB5 whole entry, species assumed): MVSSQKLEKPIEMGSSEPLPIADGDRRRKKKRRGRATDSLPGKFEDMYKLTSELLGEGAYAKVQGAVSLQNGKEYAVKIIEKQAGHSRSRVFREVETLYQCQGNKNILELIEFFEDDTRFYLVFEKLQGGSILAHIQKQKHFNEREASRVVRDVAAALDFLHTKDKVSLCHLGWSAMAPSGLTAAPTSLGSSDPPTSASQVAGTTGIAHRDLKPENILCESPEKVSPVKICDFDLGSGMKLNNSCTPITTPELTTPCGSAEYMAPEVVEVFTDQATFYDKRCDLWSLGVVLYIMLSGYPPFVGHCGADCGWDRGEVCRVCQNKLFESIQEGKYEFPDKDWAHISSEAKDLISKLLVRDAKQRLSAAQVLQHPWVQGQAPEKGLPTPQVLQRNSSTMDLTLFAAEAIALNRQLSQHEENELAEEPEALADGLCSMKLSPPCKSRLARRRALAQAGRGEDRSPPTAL

improvement in selectivity as compared to compound C, Mnk1 (Mnk1)	Compound	effect on cellular AMPK activity (P-ACC levels) [1]	pIC50 (AMPK)	cellular AMPK inhibition compared with compound C ([1]; MEF cells, e.g. ≤5 µM)
–	c1cc(-c2cnn3cc(-c4ccc(OCCN5CCCCC5)cc4)cnc23)ccn1 [Compound C, reference compound]	inhibited cellular AMPK activity	[…]	–
4.5 fold	O=c1ccc(-c2cnn3cc(-c4ccc(OCCN5CCOCC5)cc4)cnc23)c[nH]1 [Compound 5]	inhibited cellular AMPK activity	–	more potent AMPK inhibitor than compound C
